Measured values: US4093617A, “3,5,7-Trisubstituted pyrazolo[1,5-a]pyrimidines” (ICN Pharmaceuticals, Inc., priority 1976, dated 1978)
Several values for one entry are separate records, joined by “and”; a condition that tells them apart may be missing. Identical values can stand only once. Like-named read-outs stand apart in the source and are kept apart here.

Columns and labels:
[1] = system: 3',5'-Cyclic AMP Phosphodiesterase (PDE); assay: Inhibition of 3',5'-cyclic AMP phosphodiesterase (PDE) isolated from rabbit kidney, low affinity (Fraction I, high Km); type: biochemical; settings: for IC50: cAMP approx. 5 × 10^-4 M
[2] = system: histamine-induced bronchospasm; settings: F. L. Rose et al, J. Chem. Soc.; cited from earlier work
[3] = system: male Swiss-Webster mice; assay: Potentiation of the depressant effects of sodium barbital, loss of the righting reflex in the mouse; type: in vivo
Description: This dose of barbital sodium (100 mg/kg) was then injected i.p. in a group of ten mice. Fifteen min. later the mice were injected i.p. with the dose of compound to be tested. […] Mice were tested at 15 min. intervals for one hour after injection of test compound. Responses were recorded on an all-or-none basis; loss of righting reflex for 5 min. or longer was the effective criteria.

[4] = system: male Sprague-Dawley rats; assay: Antianxiety activity: stimulation of drinking activity of the rat in a passive avoidance behavioral paradigm; type: in vivo; settings: for minimal effective dose: read-out: Dose wherein the first statistically behavioral difference (p<0.05 or less) from the control group occurs; for ED50: read-out: ED50 (dose producing 50% of maximum effect)
Description: In Tables V and VI the antianxiety activity of the listed compounds is measured as a function of the compounds ability to stimulate drinking activity of the rat in a passive avoidance behavioral paradigm. For these tests male Sprague-Dawley rats weighing 175 to 200 grams were water deprived for 48 hr. and placed in environmental chambers in which water was available with a punishment contingency. Each accumulated 3 sec. of contact with the drinking tube caused a constant current source (1.2 mA DC) to be applied to the drinking tube for 2 sec. Test sessions were 5 min. in duration, commencing with delivery of the first shock. Twelve rats were treated orally 1 hr. or intraperitoneally 30 min. prior to testing. The tests are scored based on the number of shocks accepted by the treated animals at a specific dose and were compared to twelve saline control animals tested on the same day.
In Table V the activity is expressed as an ED50. The ED50 is the dose of the compound in mg/kg producing 50% of maximum effect and is shown for both oral (p.o.) and interperitoneal (i.p.) routes of administration.
In Table VI the activity is expressed as the dose (i.p.) wherein the first statistically behavioral difference (p<0.05 or less) from the control group occurs. Included for comparison are the commonly prescribed antianxiety drugs, chlordiazepoxide and diazepam.

[5] = Potentiation of the depressant effects of ethanol, loss of the righting reflex in the mouse; settings: po
Description: For this test male Swiss-Webster mice weighing 18 to 20 grams were food deprived 18 hours prior to the experiment. […] Drugs were given orally in 20 ml/kg of 1% CMC. Ethanol (5 gm/kg p.o.) was given 30 minutes after drug injection. Immediately after treatment animals were placed in individual clear plastic containers.
The righting reflex was recorded as being present when the animal would voluntarily roll to its side when placed on its back. Animals were tested for righting reflex every 15 minutes.

[6] = system: 3',5'-Cyclic-AMP phosphodiesterase (PDE); assay: Inhibition of PDE from beef heart, high affinity (Fraction II, low Km); type: biochemical; settings: cAMP 1.6 × 10^-7 M, relative to theophylline
[7] = system: 3',5'-Cyclic-AMP phosphodiesterase (PDE); assay: Inhibition of PDE from rabbit lung, high affinity (Fraction II, low Km); type: biochemical; settings: cAMP 1.6 × 10^-7 M, relative to theophylline
[8] = system: 3',5'-Cyclic AMP Phosphodiesterase (PDE); assay: Inhibition of 3',5'-cyclic AMP phosphodiesterase (PDE) isolated from rabbit lung, low affinity (Fraction I, high Km); type: biochemical; settings: for IC50: cAMP approx. 5 × 10^-4 M
[9] = system: phosphodiesterase; settings: cited from earlier work
[10] = system: central nevous system; settings: in vivo; cited from earlier work
[11] = i.p., 15 min after sodium barbital 100 mg/kg i.p.
[12] = ip, 0.5 h, i.p., 30 min prior to testing

Row | Compound | α (relative inhibitory activity as compared with theophylline) [1] | IC50 ([1]; read-out: I50) [µM] | Dose of compound which produced loss of righting reflex in 50% of treated animals ([3]; mouse, in vivo, ip) [mg/kg] | α Heart [6] | ED50 [4, 12] [mg/kg] | minimal effective dose ([4]; ip, 0.5 h, i.p.) [mg/kg] | ED50 ([4]; po, 1 hr prior to testing) [mg/kg] | NOAEL ([5]; mouse) [mg/kg] | α Lung [7] | other results
1 | CCCc1nc(C)cc2nc(N)nn12 [COMPOUND 1] | 0.14 | 1600 | – | – | – | – | – | – | – | Protection from histamine-induced bronchospasm [2]: capable of protecting animals from histamine-induced bronchospasm
2 | CCOC(=O)c1cnn2c(C)cc(C)nc12 [COOC2 H5] | 0.22 | 1000 | – | – | – | – | – | – | – | –
3 | CNC1=Nc2ccc(Cl)cc2C(c2ccccc2)=[N+]([O-])C1 [Chlordiazepoxide, chlordiazepoxide, reference compound] | – | – | – | – | – | – | – | – | – | Dose of compound which produced loss of righting reflex in 50% of treated animals [3, 11]: 6.4 ± 0.4 mg/kg; minimal effective dose ([4]; ip, 0.5 h): 10 mg/kg; NOAEL ([5]; in vivo): 4 mg/kg
4 | CN1C(=O)CN=C(c2ccccc2)c2cc(Cl)ccc21 [Diazepam, diazepam, reference compound] | – | – | – | – | – | – | – | – | – | Dose of compound which produced loss of righting reflex in 50% of treated animals [3, 11]: 0.5 ± 0.8 mg/kg; minimal effective dose ([4]; ip, 0.5 h): 20 mg/kg
5 | Cc1cc(C)n2ncc(Br)c2n1 [Example I, 3-Bromo-5,7-dimethyl pyrazolo[1,5-a]pyrimidine] | 2.20 | 100 | 61.9 ± 12.1 | 1.7 | 10.5 ± 0.8 | 10 | 9.5 ± 3.5 | 400 | 0.7 | α (relative inhibitory activity as compared with theophylline) [8]: 2.4; IC50 ([8]; read-out: I50): 270 µM
6 | Cc1cc(C)n2nccc2n1 [H, 5,7-dimethyl pyrazolo[1,5-a]pyrimidine, reference compound] | 0.20 | 800 | 118.8 ± 15.7 | – | 20.9 ± 4.6 | 40 | 43.6 ± 6.1 | 300 | – | α (relative inhibitory activity as compared with theophylline) [8]: 0.32; IC50 ([8]; read-out: I50): 2000 µM
7 | Cc1cc(C)n2ncc(Cl)c2n1 [II, 3-Chloro-5,7-dimethyl pyrazolo[1,5-a]pyrimidine] | 1.33 | 240 | 60.9 ± 20.8 | 1.7 | 2.4 ± 4.3 | 10 | 7.8 ± 4.5 | 200 | 2.2 | α (relative inhibitory activity as compared with theophylline) [8]: 3.1; IC50 ([8]; read-out: I50): 210 µM
8 | Cc1cc(C)n2ncc(I)c2n1 [III, 5,7-Dimethyl 3-iodo pyrazolo[1,5-a]pyrimidine] | 1.23 | 130 | 142.8 ± 10.1 | 1.5 | 10.1 ± 6.8 | 20 | 95.9 ± 11.7 | 200 | 3.5 | α (relative inhibitory activity as compared with theophylline) [8]: 3.5; IC50 ([8]; read-out: I50): 210 µM
9 | Cc1cc(C)n2ncc(F)c2n1 [IV, 5,7-Dimethyl 3-fluoro pyrazolo[1,5-a]pyrimidine] | – | – | 148.5 ± 4.5 | – | 40.7 ± 11.9 | 40 | 76.2 ± 10.8 | 100 | – | –
10 | CCc1cc(C)nc2c(Br)cnn12 [XIV, 3-Bromo-7-ethyl-5-methylpyrazolo[1,5-a]pyrimidine] | – | – | – | 4.0 | – | – | – | – | 7.5 | –
11 | CCCc1cc(C)nc2c(Br)cnn12 [XV, 3-Bromo-5-methyl-7-n-propylpyrazolo[1,5-a]pyrimidine] | – | – | – | 6.5 | – | – | – | – | 7.5 | –
12 | CCc1cc(CC)n2ncc(Br)c2n1 [XVI, 3-Bromo-5,7-diethylpyrazolo[1,5-a]pyrimidine] | – | – | – | 6.0 | – | – | – | – | 7.4 | –
13 | CCCc1cc(CCC)n2ncc(Br)c2n1 [XVII, 3-Bromo-5,7-di-n-propylpyrazolo[1,5-a]pyrimidine] | – | – | – | 3.0 | – | – | – | – | 5.5 | –
14 | CCCc1nc(C)cn2c(N)nnc12 [compound 2] | – | – | – | – | – | – | – | – | – | Protection from histamine-induced bronchospasm [2]: capable of protecting animals from histamine-induced bronchospasm
15 | Cn1c(=O)c2[nH]cnc2n(C)c1=O [theophylline] | – | – | – | – | – | – | – | – | – | Selectivity of phosphodiesterase inhibition [9]: does not selectively inhibit phosphodiesterase; IC50 ([1]; theophylline reference run of each compound line, read-out: I50 (theophylline)): 160 µM and 220 µM and 320 µM; Cardiovascular effects [10]: rapid beating; Central nervous system effect [10]: gives general stimulation to the central nevous system; IC50 ([8]; theophylline reference run of each compound line, read-out: I50 (Theophylline)): 640 µM and 740 µM
